Where a name gives a salt, the structure may show the parent alone.
Tests used:
nitrogenase [1] = biological target: T1, nitrogenase (Azotobacter vinelandii, UniProt P00459); assay: Chloroplast-coupled reduction of acetylene to ethylene by nitrogenase (electron carrier bioassay of Benemann); assay type: biochemical; settings: for ACTIVITY RELATIVE TO FERREDOXIN (%) / ACTIVITY (nmoles C2 H4 /mg protein/min): Table I; for ACTIVITY RELATIVE TO FERREDOXIN (%): acetylene reduction to ethylene; for ACTIVITY (nmoles C2 H4 /mg protein/min): illuminated spinach chloroplasts, synthetic carriers 2 mM, clostridial ferredoxin 0.2 mM; for ETHYLENE FORMATION % Ferredoxin Activity: Table III ranking; for % FERREDOXIN ACTIVITY: Table IV, acetylene reduction
T1 construct: the nitrogenase sample was prepared from a culture of Azotobacter vinelandii; endogenous in cells; host or cells: Azotobacter vinelandii culture; French press lysate, 10,000 x g supernatant (crude)
T1 sequence (P00459 2-290 limits assumed): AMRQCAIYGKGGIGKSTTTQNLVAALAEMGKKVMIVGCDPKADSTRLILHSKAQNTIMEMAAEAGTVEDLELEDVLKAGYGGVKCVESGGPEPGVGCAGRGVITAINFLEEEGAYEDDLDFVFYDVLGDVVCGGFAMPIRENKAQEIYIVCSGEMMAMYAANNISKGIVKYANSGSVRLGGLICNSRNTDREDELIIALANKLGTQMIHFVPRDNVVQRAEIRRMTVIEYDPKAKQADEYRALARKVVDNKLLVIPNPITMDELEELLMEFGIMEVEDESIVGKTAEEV
Method: The activity of the pyrazinium compounds as electron carriers in an illuminated photocouple process using isolated chloroplasts and the reductive enzyme catalyst nitrogenease has been determined using the bioassay of Benemann, et al., Proc. Natl. Acad. Sci. USA, 64, 1079(1969). In this method, the carrier activity is measured as a function of nitrogenase reduction of acetylene to ethylene, the rate of production of ethylene being the direct measurement.
(§1) For the bioassay, the nitrogenase sample was prepared from a culture of Azotobacter vinelandii grown to a cell density of about 1 g/l. The cells harvested by centrifugation were broken in a French press, cell debris spun off at 10,000 XG for 1 hr., and the supernatant containing 40 mg/ml protein was used in the bioassay experiments. […] chloroplasts from spinach leaves as described by Benemann were also used. The synthetic carriers were tested in aqueous solutions at concentrations of 2 mM, while the standard, clostridial ferredoxin, was used in 0.2 mM aqueous solution. The concentrations of carriers in the assay mixtures were chosen so as to guarantee carrier saturation conditions. Thus, the observed differences in rates of ethylene production from the substrate acetylene were assigned directly to variations in the efficiency of electron transfer from the illuminated chloroplast to the nitrogenase. The results obtained for acetylene reduction (nitrogen fixation) using the pyrazinium compounds of Examples 1 through 42 are summarized in Table I and are expressed as nmoles of ethylene produced per mg protein per minute.

nitrogenase [2] = biological target: T1, nitrogenase; assay: Chloroplast-coupled evolution of hydrogen by nitrogenase in the absence of substrate; assay type: biochemical; settings: Table II, hydrogen evolution; for ACTIVITY (nmoles H2 /mg protein/min): no nitrogen or acetylene, synthetic carriers 2 mM, ferredoxin 0.2 mM
Method: as §1
It has been recognized for sometime the connection existing between hydrogen metabolism and nitrogen fixation. […] When nitrogenase was purified extensively, as mentioned above, it became apparent that in addition to nitrogen, nitrogenase also catalyzed the reduction of protons. The evolution of hydrogen is particularly active in the absence of the normal substrates for nitrogenase (nitrogen, acetylene, cyanide, azide, etc.), and is dependent upon a strong reductant and adenosine triphosphate hydrolysis. Since hydrogen evolution is not inhibited by CO, but reduction of nitrogen and other substrates is, the reduction of protons presumably occurs at a site other than the site of nitrogen reduction, H. C. Winter, et. al., Ann Rev. Biochem, 45, 409 (1976). Accordingly, with the same bioassay system and with exclusion of nitrogen, and acetylene, the activity of the pyrazinium compounds to act as carriers for production of hydrogen has been determined.
The results of this study, which are summarized in Table II, indicate that the pyrazinium salts that mediate the reduction of acetylene with electrons from the photoexcited chloroplast, are also mediating the reduction of protons by the nitrogenase.

[3] = Polarographic half-wave potential (first wave reduction); assay type: physicochemical; settings: 0.1 M phosphate buffer pH 7.55, 25° C.
From the text: Sci., 65, 1471(1976). Therefore, it was of interest to measure polarographically the half-wave potentials of the several pyrazinium salts under consideration, to determine the possible effect of structure upon their redox potentials.

Compound	ACTIVITY RELATIVE TO FERREDOXIN (%) (nitrogenase [1])	ACTIVITY (nmoles C2 H4 /mg protein/min) (nitrogenase [1])	ETHYLENE FORMATION % Ferredoxin Activity (nitrogenase [1])	% FERREDOXIN ACTIVITY (nitrogenase [1])	ACTIVITY RELATIVE TO FERREDOXIN (%) (nitrogenase [2])	ACTIVITY (nmoles H2 /mg protein/min) (nitrogenase [2])	E1/2 vs. SCE (mV) [3]
CC(=O)NCCc1c[n+](C)ccn1.[I-] [Compound 3800, 1-Methyl-3-(2-acetamidoethyl)pyrazinium iodide]	15%	2.0 nmoles C2 H4 /mg protein/min	15%	15%	22%	5.8 nmoles H2 /mg protein/min	-681 mV
Cc1c[n+](CCCS(=O)(=O)[O-])c(C)cn1 [Compound 700, 1-(3-Sulfonylpropyl)-2,5-dimethylpyrazine]	104%	14.0 nmoles C2 H4 /mg protein/min	104%	104%	74%	19.7 nmoles H2 /mg protein/min	-700 mV
COC(=O)CCc1c[n+](C)ccn1.[I-] [Compound 3901, 1-methyl-3-(2-carbomethoxyethyl)pyrazinium iodide]	22%	3.0 nmoles C2 H4 /mg protein/min	22%	22%	26%	6.9 nmoles H2 /mg protein/min	-685 mV
CCCCc1c[n+](C)ccn1 [Compound 5000]	0%	0.0 nmoles C2 H4 /mg protein/min	0%	0%	0%	0.0 nmoles H2 /mg protein/min	-676 mV
Cc1c[n+](CCCS(=O)(=O)[O-])ccn1 [Compound 600]	64%	8.7 nmoles C2 H4 /mg protein/min	64%	64%	106%	28.4 nmoles H2 /mg protein/min	-651 mV
C[n+]1ccnc(C(CCCS(=O)(=O)[O-])CCCS(=O)(=O)O)c1 (stereo not shown) [Compound 1800, 4-(1-Methyl-3-pyrazinyl)heptane-1,7-disulfonate sodium salt]	124%	16.7 nmoles C2 H4 /mg protein/min	124%	124%	129%	34.4 nmoles H2 /mg protein/min	-683 mV
O=C(O)CC[n+]1ccncc1.[Br-] [Compound 800, 1-(2-Carboxyethyl)pyrazinium bromide]	50%	6.8 nmoles C2 H4 /mg protein/min	50%	50%	28%	7.5 nmoles H2 /mg protein/min	-625 mV
C[n+]1ccnc(C(=O)O)c1 [Compound 4400]	0%	0.0 nmoles C2 H4 /mg protein/min	0%	0%	0%	0.0 nmoles H2 /mg protein/min	-613 mV
Cc1c[n+](C)ccn1 [Compound 4300]	5%	0.7 nmoles C2 H4 /mg protein/min	5%	5%	14%	3.7 nmoles H2 /mg protein/min	-696 mV
C[n+]1ccnc(CCCCS(=O)(=O)[O-])c1 [Compound 1801]	79%	10.7 nmoles C2 H4 /mg protein/min	79%	79%	106%	28.4 nmoles H2 /mg protein/min	-676 mV

From patent US4638005A, “Monoquaternized pyrazinium compounds and their use as electron carriers in photosynthetic processes” (The Coca-Cola Company, priority 1983, dated 1987)
